The record followed here is patent US20250102527A1, “METHOD AND DEVICE FOR DETERMINING THE VITAMIN STATUS” (TECHNISCHE UNIVERSITÄT MÜNCHEN, priority 2022, published 2025).

For experiment [1], the target named is T1, recombinant human PLP binding protein (PLPBP, UniProt 094903) (Homo sapiens, UniProt O94903).
T1 construct: made in house; host or cells: E. coli Rosetta2 (DE3)
Briefly: Gel-based labeling of recombinant PLPBP with PLxP probes (fluorescence SDS-PAGE). As to conditions: for labeling of recombinant PLPBP by PLP cofactor mimic: 1 μM PLPBP, 100 μM probe, 1 h r.t., NaBH4 reduction, click to Cy5, fluorescence SDS-Page. The protocol:
Conditions: 1 μM PLPBP, 100 μM probe (incubation 1 h, r.t.), reduction (NaBH4), precipitation (Aceton), wash (MeOH), redissolve in PBS+0.2% SDS, click to Cy5. Analysis via fluorescence SDS-Page.
Structures of the different PLP probes PL1P, PL2P and PL13P (top) that were tested for their labeling efficiency of recombinant PLP binding protein (PLPBP), separately and all three in combination on a fluorescent SDS gel (bottom). The denaturation of PLPBP via increased temperature (heat control, h.c.) prior to labeling with the combination of probes served as negative control. FM=fluorescent marker.
In brief, PLPBP (1 μM in PBS, total volume: 50 μL) was labeled with PLxP probe or mixture of PLxP probes (PL1P, PL2P, PL13P, final conc. 100 μM) at room temperature for 30 min. Upon reduction with […] NaBH4 (1 μl of 250 mM prepared fresh in 0.1 M NaOH) at room temperature for 30 min, proteins were precipitated by adding ice-cold acetone (4× volume) and incubating at −20° C. for at least 1 h. Precipitated proteins were pelletized by centrifugation (18,000×g, 15 min, 4° C.) and washed two times with ice-cold MeOH. For washing, protein pellet is resuspended in 0.2 mL cold methanol (−80° C.) by mild sonication (10 s, 10% intensity) and centrifuged (10 000 rpm, 10 min, 4° C.). Pelletized proteins were resuspended in 50 μl PBS containing […] SDS and Click chemistry was performed by adding 100 μM Cy5 azide (1 μL of 5 mM in DMSO), 100 μM TBTA (3 μL of 1.67 mM in/BuOH/DMSO 80:20), 1 mM TCEP (0.5 μL of 15 mg/mL stock in ddH2O) and 1 mM CuSO4 (1 μL of 50 mM stock in ddH2O) to each sample and incubated for at least 1 h at r.t. Samples were quenched with 2× Lämmli buffer and analysed by SDS-PAGE (12.5% polyacrylamide gels) with subsequent fluorescence scanning.
For this, we selected recombinant human PLP binding protein (PLPBP, UniProt 094903) as a medium abundant model PLP-DE of human erythrocytes.
Conditions: 1 μM PLPBP, 100 μM probe (incubation 1 h, r.t.), reduction (NaBH4), precipitation (aceton), wash (MeOH), redissolve in PBS+0.2% SDS, click to Cy5. Analysis via fluorescence SDS-Page. Results see FIG. 6.

A further experiment deals with T2, recombinant SHMT1 (Homo sapiens, UniProt P34896).
T2 construct: made in house; host or cells: E. coli Rosetta2 (DE3)
T2 sequence (P34896 1-483): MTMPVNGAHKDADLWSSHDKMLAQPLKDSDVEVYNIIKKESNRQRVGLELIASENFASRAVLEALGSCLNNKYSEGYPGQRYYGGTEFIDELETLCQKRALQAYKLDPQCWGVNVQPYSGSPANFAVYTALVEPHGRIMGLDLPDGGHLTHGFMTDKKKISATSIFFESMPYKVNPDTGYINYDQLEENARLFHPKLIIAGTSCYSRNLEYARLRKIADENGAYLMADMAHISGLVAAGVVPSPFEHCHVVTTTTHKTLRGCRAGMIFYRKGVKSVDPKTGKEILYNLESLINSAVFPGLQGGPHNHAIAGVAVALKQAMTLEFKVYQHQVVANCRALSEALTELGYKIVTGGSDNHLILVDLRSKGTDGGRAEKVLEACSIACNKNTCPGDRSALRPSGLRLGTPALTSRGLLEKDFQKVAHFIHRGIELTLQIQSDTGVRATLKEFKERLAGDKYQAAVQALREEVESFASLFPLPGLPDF
The experiment can be described thus: Microarray readout of PL2P probe signal on recombinant SHMT1 preincubated with PLP. The format is binding. As to conditions: apoSHMT1 preincubated with 0.5-4.0 eq PLP, fixed with NaBH4, 100 μM PL2P, click to rhodamine azide. The protocol:
FIG. 11. Signal intensity is dependent on saturation level of PLP-DE with PLP. • (A) PLP loading states of recombinant SHMT1 incubated with increasing equivalents (eq) of PLP were determined by intact protein-MS (n=3) as described previously (Hoegl et al., 2018). • (B) Microarray read out of recombinant SHMT1 bound PL2P probe signals preincubated with PLP equivalents in a physiological range of 0.5-4.0 eq. Mean signal intensities of anti-SHMT1 (n=8) corrected to BSA control and error bars (SD) after fluorescent readout of anti-SHMT1 3. Sample preparation according to workflow 3, as described in the Examples.
40 μM apoSHMT1 (25 μL) samples were incubated with increasing amounts of PLP (0 eq., 0.50 eq., 1.00 eq., 4.00 eq., 32.0 eq.) for 1 h at r.t. and subsequently treated with 20 mM NaBH4 (250 mM stock solution in 0.1 M NaOH) for 30 min at r.t. Reduction was quenched by adding cold acetone (4× volume of sample, −20° C.) for at least 1 h. Precipitated proteins were pelletized (10 000 rpm, 15 min, 4° C.) and supernatant was discarded. […] Samples are subsequently incubated and analysed on the microarrays. […]
The samples were analysed in a single colour approach (without secondary antibody incubation) or dual-colour approach (with secondary antibody incubation) using custom microarrays containing antibodies against OAT, SHMT and PLPBP or a subset of these antibodies. […]

Entries after “also recorded” stand apart in the source; their conditions may differ.

T1 sequence (O94903 whole entry): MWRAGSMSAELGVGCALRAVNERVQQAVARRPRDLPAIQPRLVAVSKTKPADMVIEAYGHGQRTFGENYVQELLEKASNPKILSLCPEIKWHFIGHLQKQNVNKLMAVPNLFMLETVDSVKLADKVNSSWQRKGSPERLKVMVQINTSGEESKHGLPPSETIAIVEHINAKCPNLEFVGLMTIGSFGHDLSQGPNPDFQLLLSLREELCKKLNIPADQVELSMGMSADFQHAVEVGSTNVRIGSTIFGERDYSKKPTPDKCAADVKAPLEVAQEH

Regarding `C#Cc1ncc(COP(=O)(O)O)c(C=O)c1O` [PL1P, (6-ethynyl-4-formyl-5-hydroxypyridin-3-yl)methyl phosphate], in experiment [1], the “labeling of recombinant PLPBP by PLP cofactor mimic” value (“labeling … by PLP cofactor mimic” for short) is “successfully tested”.
For the compound `Cc1ncc(COP(=O)(O)O)c(C=O)c1O` [PLP, pyridoxal phosphate], the “PL2P probe signal intensity on microarray with increasing PLP saturation of SHMT1” value on recombinant SHMT1 is “decrease in signal intensity; also recorded: decline in signal intensity”.
“(4-formyl-6-methyl-5-(prop-2-yn-1-yloxy)pyridin-3-yl)methyl phosphate [PL13P]”: the “labeling … by PLP cofactor mimic” value in experiment [1] is given as “successfully tested”.
“(6-(but-3-yn-1-yl)-4-formyl-5-hydroxypyridin-3-yl)methyl phosphate [PL2P]”: the “labeling … by PLP cofactor mimic” value in experiment [1] is “successfully tested”. Moreover, in experiment [1] (comparison of PL1P, PL2P, PL13P via SDS-Page), the “most suitable PLP cofactor mimic for labeling of recombinant PLPBP” value is listed as “most suitable”.
